Test results from patent publication US20110014216A1, “Drug Transfer Based on Coenzyme A and Acyl Carrier Protein” (COVALYS B[…], priority 2007, published 2011).

Test system: fusion protein ACP-FRB
Test: in vitro protein trimer formation with ACP-FRB, ACP synthase, SDS-PAGE
Format: biochemical
Settings: FRB protein fused to ACP tag, ACP synthase enzyme, overnight incubation at 4° C., coomassie stained
Experimental: A solution of maleimide derivative (34) (1.4 mg, 1 eq, 1.3 μmol) in DMF (0.7 mL) is added to a solution of CoA-SH (3.5 mg, 3.3 eq, 4.3 μmol) in Tris buffer (pH 7.5, 100 μL). The reaction mixture is shaken overnight at 31° C. The solvent is removed under vacuum and the crude mixture is purified via preparative HPLC. The structural ability of compound (35) to trigger the formation of a protein trimer is confirmed by in vitro experiments using the fusion protein ACP-FRB. 12.5 μL of a 48.5 μM solution of FRB protein fused to the ACP tag (Covalys) is mixed with 0.5 μL of a 0.2 mM solution of compound (35), 2.5 μL of a solution of [500 mM Tris-HCl pH 7.5; 1500 mM NaCl; 100 mM MgCl2], 9.5 μL of double distilled water and 0.5 μl of ACP synthase enzyme (available from Covalys). Following overnight incubation at 4° C., 5 μL of a solution of 100 mM Tris-HCl pH 6.8; 2% SDS; 35% glycerol; 10 mM EDTA; 20 mM DTT is added. The mixture is boiled for 5 min at 95° C. After cooling to rt, 30 μL of this solution is loaded on a 4-20% linear gradient SDS-PAGE gel. After electrophoresis, the proteins are coomassie stained in gel to visualize protein trimer.

With `CCN(CC)c1ccc2nc3c4cc(OCC(=O)NC(COCCC(=O)NCCN5C(=O)CC(SCCNC(=O)CCNC(=O)[C@H](O)C(C)(C)COP(=O)([O-])OP(=O)([O-])OC[C@H]6O[C@@H](n7cnc8c(N)ncnc87)C(O)C6OP(=O)(O)O)C5=O)(COCCC(=O)NCCN5C(=O)CC(SCCNC(=O)CCNC(=O)[C@H](O)C(C)(C)COP(=O)([O-])OP(=O)([O-])OC[C@H]6O[C@@H](n7cnc8c(N)ncnc87)C(O)C6OP(=O)(O)O)C5=O)COCCC(=O)NCCN5C(=O)CC(SCCNC(=O)CCNC(=O)[C@H](O)C(C)(C)COP(=O)([O-])OP(=O)([O-])OC[C@H]6O[C@@H](n7cnc8c(N)ncnc87)C(O)C6OP(=O)(O)O)C5=O)ccc4c(=O)cc-3oc2c1.[Na+].[Na+].[Na+].[Na+].[Na+].[Na+]` (stereo partly shown) [Compound 35, N-Tris-{[2-(2-(2-(CoA-S)-succinimido)ethylaminocarbonyl)ethoxy]-methyl}methyl nile red-oxyacetamide] the “structural ability to trigger the formation of a protein trimer” value was “confirmed”.
